Tested on: patients with immune thrombocytopenia who initiated 400 mg BID
Experiment: Clinical predictors of response, exploratory analysis of Phase 1/2 study (univariate logistic regression)
Type: in vivo, human
Excerpt: Clinical predictors were selected based on clinical considerations anticipated to be associated with platelet response and evaluated by univariate logistic regression models. For continuous variables, the t test was used to test for differences, whereas for categorical variables, the Fisher exact test was used. PK exposure at steady-state was estimated based on post hoc analysis from a previously established population PK model.

## CC(C)(C=C(C#N)C(=O)N1CCC[C@@H](n2nc(-c3ccc(Oc4ccccc4)cc3F)c3c(N)ncnc32)C1)N1CCN(C2COC2)CC1 [rilzabrutinib, (R)-2-[3-[4-amino-3-(2-fluoro-4-phenoxy-phenyl)pyrazolo[3,4-d]pyrimidin-1-yl]piperidine-1-carbonyl]-4-methyl-4-[4-(oxetan-3-yl)piperazin-1-yl]pent-2-enenitrile]
Patients who received prior rituximab
  early responders, proportion of patients: 14%
Patients with no prior rituximab
  early responders, proportion of patients: 48%
Patients with prior rituximab
  responders, proportion of patients: 23%
Patients without prior TPO-RA
  responders, proportion of patients: 64%
Patients without prior rituximab
  responders, proportion of patients: 57%

— patent US20250255874A1, “Methods for Treating Immune Thrombocytopenia By Administering (R)-2-[3-[4-Amino-3-(2-Fluoro-4-Phenoxy-Phenyl)Pyrazolo[3,4-D]Pyrimidin-1-YL]Piperidine-1-Carbonyl]-4-Methyl-4-[4-(Oxetan-3-YL)Piperazin-1-YL]Pent-2-Enentrile” (Principia Biopharma Inc., priority 2022, published 2025)
